For 25 compounds, IC50 results are on record in US20140018347A1, “BENZOXAZEPINES AS INHIBITORS OF mTOR AND METHODS OF THEIR USE AND MANUFACTURE” (Exelixis, Inc., priority 2010, published 2014).

For test [1], the target named is mTORC1 (Homo sapiens, UniProt P42345). Nature of the test: mTOR/GbL/Raptor (mTORC1) ELISA Assay. The class given is biochemical. To be noted: phosphorylation of 4E-BP1; 0.2 nM mTORC1, 10 μM ATP. In outline:
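Kinase reaction: 0.2 nM mTORC1, 10 μM ATP, 50 nM NHis-4E-BP1 in Hepes pH 7.2 with 10 mM MnCl2, 120 min at ambient temperature. Phospho-4E-BP1 was captured on Ni-chelate plates and detected by anti-phospho-4E-BP1 rabbit IgG, HRP secondary and chemiluminescence.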
A general note: ELISA stands for enzyme-linked immunosorbent assay.

For test [2], the target named is PI3Kalpha (Homo sapiens, UniProt P42336). Nature of the test: PI3K Biochemical Assays (PI3K-alpha assay). To be noted: ATP consumption, luciferase-luciferin; 1 μM ATP, 10 μM PIP2. In outline: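 Recombinant PI3Kα 3 nM, ATP 1 μM and PIP2 10 μM in Tris pH 7.5 with 10 mM MgCl2, ~2 h at ambient temperature. ATP depletion (held to 40-60%) was read by Kinase-Glo luminescence for IC50. Other isoforms: β 10 nM, δ 4 nM; γ 40 nM, 1 h, 5 mM MgCl2.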
Sequence of PI3Kalpha (P42336 whole entry, canonical isoform): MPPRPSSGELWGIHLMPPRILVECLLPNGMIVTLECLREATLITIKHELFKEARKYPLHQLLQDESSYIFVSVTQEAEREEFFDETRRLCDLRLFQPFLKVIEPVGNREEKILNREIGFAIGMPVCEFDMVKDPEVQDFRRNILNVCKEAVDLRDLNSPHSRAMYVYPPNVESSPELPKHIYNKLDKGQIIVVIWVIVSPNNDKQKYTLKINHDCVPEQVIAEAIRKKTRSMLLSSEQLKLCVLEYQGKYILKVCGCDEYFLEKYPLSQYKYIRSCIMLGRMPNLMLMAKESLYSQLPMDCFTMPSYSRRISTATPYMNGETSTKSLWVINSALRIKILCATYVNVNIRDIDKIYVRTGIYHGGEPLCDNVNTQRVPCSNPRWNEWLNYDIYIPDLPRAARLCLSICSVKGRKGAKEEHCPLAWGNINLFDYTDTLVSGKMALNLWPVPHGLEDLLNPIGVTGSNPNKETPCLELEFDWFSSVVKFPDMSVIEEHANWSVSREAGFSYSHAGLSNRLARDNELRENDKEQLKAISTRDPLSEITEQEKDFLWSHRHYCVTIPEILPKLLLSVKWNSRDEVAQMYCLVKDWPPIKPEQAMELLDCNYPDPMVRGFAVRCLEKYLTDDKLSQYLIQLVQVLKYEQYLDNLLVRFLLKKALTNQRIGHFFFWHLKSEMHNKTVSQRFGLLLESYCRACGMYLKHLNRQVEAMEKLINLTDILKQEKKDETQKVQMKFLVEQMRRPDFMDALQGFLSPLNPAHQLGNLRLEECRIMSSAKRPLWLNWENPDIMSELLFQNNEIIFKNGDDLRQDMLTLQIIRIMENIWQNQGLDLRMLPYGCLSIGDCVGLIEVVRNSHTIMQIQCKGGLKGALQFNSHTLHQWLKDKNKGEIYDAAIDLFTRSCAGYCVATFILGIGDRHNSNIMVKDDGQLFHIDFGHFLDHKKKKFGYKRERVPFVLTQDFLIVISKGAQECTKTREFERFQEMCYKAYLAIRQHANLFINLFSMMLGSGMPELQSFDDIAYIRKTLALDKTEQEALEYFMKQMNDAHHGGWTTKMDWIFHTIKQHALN
Sequence of PI3Kalpha (P27986 whole entry partner, canonical isoform): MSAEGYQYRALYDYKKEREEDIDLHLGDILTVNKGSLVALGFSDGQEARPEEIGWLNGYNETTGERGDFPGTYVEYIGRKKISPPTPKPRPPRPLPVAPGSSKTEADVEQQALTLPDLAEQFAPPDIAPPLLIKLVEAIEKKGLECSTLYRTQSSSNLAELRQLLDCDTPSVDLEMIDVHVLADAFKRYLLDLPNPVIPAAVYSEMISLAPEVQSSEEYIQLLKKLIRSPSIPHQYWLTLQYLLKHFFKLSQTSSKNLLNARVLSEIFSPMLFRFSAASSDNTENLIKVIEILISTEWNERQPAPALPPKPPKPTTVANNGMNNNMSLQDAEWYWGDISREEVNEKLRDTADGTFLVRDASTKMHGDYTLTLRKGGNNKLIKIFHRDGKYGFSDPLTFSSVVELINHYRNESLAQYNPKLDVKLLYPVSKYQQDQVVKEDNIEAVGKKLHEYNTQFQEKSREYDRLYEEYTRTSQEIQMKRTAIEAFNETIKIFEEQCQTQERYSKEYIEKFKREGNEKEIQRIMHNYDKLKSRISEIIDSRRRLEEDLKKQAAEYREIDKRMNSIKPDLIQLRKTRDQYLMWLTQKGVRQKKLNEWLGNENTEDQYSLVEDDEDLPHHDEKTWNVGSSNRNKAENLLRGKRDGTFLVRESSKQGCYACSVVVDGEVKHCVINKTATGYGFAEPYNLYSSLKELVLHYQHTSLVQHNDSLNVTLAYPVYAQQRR

A value given as a limit tells only on which side of the number the result lay.

The term IC50 denotes the concentration needed to halve the response being measured. Regarding `CC(=O)NCc1nc(C)c(C(C)C)c(N2CCOc3ccc(-c4cnc5sc(N)nc5c4)cc3C2)n1` [Compound 22, N-({4-[7-(2-amino[1,3]thiazolo[5,4-b]pyridin-6-yl)-2,3-dihydro-1,4-benzoxazepin-4(5H)-yl]-6-methyl-5-(1-methylethyl)pyrimidin-2-yl)methyl)acetamide], the 50% inhibitory concentration (IC50) in test [1] and in test [2] was not above 100 nM in each case.
For `CCc1nc(N)nc(N2CCOc3ccc(-c4cnc5sc(N)nc5c4)cc3C2)c1C(C)C` [Compound 29, 6-{4-[2-amino-6-ethyl-5-(1-methylethyl)pyrimidin-4-yl]-2,3,4,5-tetrahydro-1,4-benzoxazepin-7-yl}[1,3]thiazolo[5,4-b]pyridin-2-amine], the IC50 in test [1] and in test [2] was not above 100 nM in each case.
For the compound `Nc1ncc(C(F)(F)F)c(N2CCOc3ccc(-c4cnc5sc(N)nc5c4)cc3C2)n1` [Compound 78, 6-{4-[2-amino-5-(trifluoromethyl)pyrimidin-4-yl]-2,3,4,5-tetrahydro-1,4-benzoxazepin-7-yl}[1,3]thiazolo[5,4-b]pyridin-2-amine], the half-inhibitory concentration (IC50) in test [1] and in test [2] was not above 100 nM throughout.
For `CC1(C)CCc2nc(CC#N)nc(N3CCOc4ccc(-c5cnc6sc(N)nc6c5)cc4C3)c2C1` [Compound 60, {4-[7-(2-amino[1,3]thiazolo[5,4-b]pyridin-6-yl)-2,3-dihydro-1,4-benzoxazepin-4(5H)-yl]-6,6-dimethyl-5,6,7,8-tetrahydroquinazolin-2-yl}acetonitrile], the IC50 in test [1] and in test [2] was not above 100 nM throughout.
With `Cc1nc(CN(C)C)nc(N2CCOc3ccc(-c4cnc5sc(N)nc5c4)cc3C2)c1CC(O)CO` (centres unmarked) [Compound 45, 3-{4-[7-(2-amino[1,3]thiazolo[5,4-b]pyridin-6-yl)-2,3-dihydro-1,4-benzoxazepin-4(5H)-yl]-2-[(dimethylamino)methyl]-6-methylpyrimidin-5-yl}propane-1,2-diol], the 50% inhibitory concentration (IC50) in test [1] and in test [2] was 500 to 2500 nM each time.
As for `Cc1nc(C#N)nc(N2CCOc3ccc(-c4cnc5sc(N)nc5c4)cc3C2)c1C(C)C` [Compound 25, 4-[7-(2-amino[1,3]thiazolo[5,4-b]pyridin-6-yl)-2,3-dihydro-1,4-benzoxazepin-4(5H)-yl)-6-methyl-5-(1-methylethyl)pyrimidine-2-carbonitrile], the half-inhibitory concentration (IC50) in test [1] is not above 100 nM; in test [2], 100 to 500 nM.
With `CC1(C)Cc2nc(N3CCOc4ccc(-c5cnc6sc(N)nc6c5)cc4C3)sc2C(=O)N1` [Compound 85, 2-[7-(2-amino[1,3]thiazolo[5,4-b]pyridin-6-yl)-23-dihydro-1,4-benzoxazepin-4(5H)-yl]-6,6-dimethyl-6,7-dihydro[1,3]thiazolo[5,4-c]pyridin-4(5H)-one], the concentration for half-maximal inhibition (IC50) in test [1] was not above 100 nM; in test [2], 100 to 500 nM.
Taken in the same sequence, the figures for `Cc1nc(N)nc(N2CCOc3ccc(-c4cnc5sc(N)nc5c4)cc3C2)c1CCC#N` [Compound 44, 3-{2-amino-4-[7-(2-amino[1,3]thiazolo[5,4-b]pyridin-6-yl)-2,3-dihydro-1,4-benzoxazepin-4(5H)-yl]-6-methylpyrimidin-5-yl}propanenitrile] were 100 to 500 nM and not above 100 nM.
Taken in the same sequence, the figures for `CC(C)c1c(Cl)nc(N)nc1N1CCOc2ccc(-c3cnc4sc(N)nc4c3)cc2C1` [Compound 8, 6-{4-[2-amino-6-chloro-5-(1-methylethyl)pyrimidin-4-yl]-2,3,4,5-tetrahydro-1,4-benzoxazepin-7-yl}[1,3]thiazolo[5,4-b]pyridin-2-amine] were not above 100 nM and not above 100 nM.
Taken in the same sequence, the figures for `CCCc1c(C)nc(N)nc1N1CCOc2ccc(-c3cnc4sc(N)nc4c3)cc2C1` [Compound 32] were not above 100 nM and not above 100 nM.
Take `Cc1nc(N)nc(N2CCOc3c(Cl)cc(-c4cnc5sc(N)nc5c4)cc3C2)c1C(C)C` [Compound 102, 6-{4-[2-amino-6-methyl-5-(1-methylethyl)pyrimidin-4-yl]-9-chloro-2,3,4,5-tetrahydro-1,4-benzoxazepin-7-yl}[1,3]thiazolo[5,4-b]pyridin-2-amine]: the IC50 in test [1] and in test [2] was not above 100 nM throughout.
Regarding `CC(C)c1c(Br)nc(N)nc1N1CCOc2ccc(-c3cnc4sc(N)nc4c3)cc2C1` [Compound 19, 6-{4-[2-amino-6-bromo-5-(1-methylethyl)pyrimidin-4-yl]-2,3,4,5-tetrahydro-1,4-benzoxazepin-7-yl}[1,3]thiazolo[5,4-b]pyridin-2-amine], the IC50 in test [1] and in test [2] was not above 100 nM throughout.
Take `Cc1cc(N2CCOc3ccc(-c4cnc5sc(N)nc5c4)cc3C2)nc(N)n1` [Compound 46, 6-[4-(2-amino-6-methylpyrimidin-4-yl)-2,3,4,5-tetrahydro-1,4-benzoxazepin-7-yl][1,3]thiazolo[5,4-b]pyridin-2-amine]: the IC50 in test [1] lay in the range of 500 to 2500 nM; in test [2], 100 to 500 nM.
In the same order, the values of `Cc1nc(CN(C)C)nc(N2CCOc3ccc(-c4cnc5sc(N)nc5c4)cc3C2)c1CC(C)C` [Compound 36, 6-(4-{2-[(dimethylamino)methyl]-6-methyl-5-(2-methylpropyl)pyrimidin-4-yl}-2,3,4,5-tetrahydro-1,4-benzoxazepin-7-yl)[1,3]thiazolo[5,4-b]pyridin-2-amine] are not above 100 nM and 100 to 500 nM.
Turning to `Cc1c(Cl)nc(N)nc1N1CCOc2ccc(-c3cnc4sc(N)nc4c3)cc2C1` [Compound 31, 6-[4-(2-amino-6-chloro-5-methylpyrimidin-4-yl)-2,3,4,5-tetrahydro-1,4-benzoxazepin-7-yl][1,3]thiazolo[5,4-b]pyridin-2-amine], the values for the half-maximal inhibitory concentration (IC50) in test [1] and in test [2] were 100 to 500 nM and not above 100 nM, respectively.
With `Cc1nc(CN(C)C)nc(N2CCOc3ccc(-c4cnc5sc(N)nc5c4)cc3C2)c1C(C)C` [Compound 55, 6-(4-{2-[(dimethylamino)methyl]-6-methyl-5-(1-methylethyl)pyrimidin-4-yl}-2,3,4,5-tetrahydro-1,4-benzoxazepin-7-yl)[1,3]thiazolo[5,4-b]pyridin-2-amine], the IC50 in test [1] and in test [2] was not above 100 nM throughout.
Turning to `CCc1c(Cl)nc(N)nc1N1CCOc2ccc(-c3cnc4sc(N)nc4c3)cc2C1` [Compound 7, 6-[4-(2-amino-6-chloro-5-ethylpyrimidin-4-yl)-2,3,4,5-tetrahydro-1,4-benzoxazepin-7-yl][1,3]thiazolo[5,4-b]pyridin-2-amine], the half-inhibitory concentration (IC50) in test [1] and in test [2] was not above 100 nM in each case.
Consider `COCCc1c(C)nc(N)nc1N1CCOc2ccc(-c3cnc4sc(N)nc4c3)cc2C1` [Compound 12, 6-(4-{2-amino-6-methyl-5-[2-(methyloxy)ethyl]pyrimidin-4-yl)-2,3,4,5-tetrahydro-1,4-benzoxazepin-7-yl)[1,3]thiazolo[5,4-b]pyridin-2-amine], for which the IC50 in test [1] and in test [2] was not above 100 nM each time.
On to `CNc1nc(N)nc(N2CCOc3ccc(-c4cnc5sc(N)nc5c4)cc3C2)c1C` [Compound 63, 6-[7-(2-amino[1,3]thiazolo[5,4-b]pyridin-6-yl)-2,3-dihydro-1,4-benzoxazepin-4(5H)-yl]-N~4~,5-dimethylpyrimidine-2,4-diamine], for which the IC50 was 100 to 500 nM in test [1] and not above 100 nM in test [2].
Regarding `CC1=CC(C)(C)Cc2c1nc(N)nc2N1CCOc2ccc(-c3cnc4sc(N)nc4c3)cc2C1` [Compound 97, 4-[7-(2-amino[1,3]thiazolo[5,4-b]pyridin-6-yl)-2,3-dihydro-1,4-benzoxazepin-4(5H)-yl]-6,6,8-trimethyl-5,6-dihydroquinazolin-2-amine], the IC50 in test [1] and in test [2] was not above 100 nM each time.
Consider `C=CCc1c(Cl)nc(N)nc1N1CCOc2ccc(-c3cnc4sc(N)nc4c3)cc2C1` [Compound 76, 6-[4-(2-amino-6-chloro-5-prop-2-en-1-ylpyrimidin-4-yl)-2,3,4,5-tetrahydro-1,4-benzoxazepin-7-yl][1,3]thiazolo[5,4-b]pyridin-2-amine], for which the 50% inhibitory concentration (IC50) in test [1] and in test [2] was not above 100 nM in each case.
For `Nc1cc(Cl)nc(N2CCOc3ccc(-c4cnc5sc(N)nc5c4)cc3C2)n1` [Compound 50, 6-[4-(4-amino-6-chloropyrimidin-2-yl)-2,3,4,5-tetrahydro-1,4-benzoxazepin-7-yl][1,3]thiazolo[5,4-b]pyridin-2-amine], the IC50 in test [1] and in test [2] was 100 to 500 nM throughout.
For the compound `Nc1nc2cc(-c3ccc4c(c3)CN(c3ccnc([N+](=O)[O-])c3)CCO4)cnc2s1` [Compound 93, 6-[4-(2-nitropyridin-4-yl)-2,3,4,5-tetrahydro-1,4-benzoxazepin-7-yl][1,3]thiazolo[5,4-b]pyridin-2-amine], the IC50 in test [1] is 100 to 500 nM; in test [2], 500 to 2500 nM.
In the same order, the values of `CCc1c(C)nc(N)nc1N1CCOc2ccc(-c3cnc4sc(N)nc4c3)cc2C1` [Compound 6, 6-[4-(2-amino-5-ethyl-6-methylpyrimidin-4-yl)-2,3,4,5-tetrahydro-1,4-benzoxazepin-7-yl][1,3]thiazolo[5,4-b]pyridin-2-amine] are not above 100 nM and not above 100 nM.
In the same order, the values of `Cc1nc(N)nc(N2CCOc3ccc(-c4cnc5sc(N)nc5c4)cc3C2)c1-c1ccccc1` [Compound 39, 6-[4-(2-amino-6-methyl-5-phenylpyrimidin-4-yl)-2,3,4,5-tetrahydro-1,4-benzoxazepin-7-yl][1,3]thiazolo[5,4-b]pyridin-2-amine] are not above 100 nM and not above 100 nM.
